Measured values published in US20250275540A1, “USE OF PROTOPORPHYRINOGEN OXIDASE” (BEIJING DABEINONG BIOTECHNOLOGY CO., LTD., priority 2022, published 2025).

System: transgenic Arabidopsis thaliana T1 plants
Assay: Detection of the herbicide tolerance of the transgenic Arabidopsis thaliana plants
Type: in vivo
Details: for The grade of pesticide damage/plant: 0 / The grade of pesticide damage/plant: 1 / The grade of pesticide damage/plant: 2 / The grade of pesticide damage/plant: 3: 7 DAT
From the text: The transformed Arabidopsis thaliana T1 plants were initially selected using glufosinate herbicide. The Arabidopsis thaliana T1 plants (PPOA-01) into which the PPOA-01 nucleotide sequence was introduced, the Arabidopsis thaliana T1 plants (PPOB-01) into which the PPOB-01 nucleotide sequence was introduced, the Arabidopsis thaliana T1 plants (PPOC-01) into which the PPOC-01 nucleotide sequence was introduced, the Arabidopsis thaliana T1 plants (PPOD-01) into which the PPOD-01 nucleotide sequence was introduced, the Arabidopsis thaliana T1 plants (PPOE-01) into which the PPOE-01 nucleotide sequence was introduced, the Arabidopsis thaliana T1 plants (PPOF-01) into which the PPOF-01 nucleotide sequence was introduced, the Arabidopsis thaliana T1 plants (PPO-AP-01) into which the PPO-AP-01 nucleotide sequence was introduced, and the Arabidopsis thaliana T1 plants (control vector) into which the control vector was introduced, the wild-type Arabidopsis thaliana plants (CK) (with 24 plants being included in each genotype) (18 days after sowing) were sprayed with saflufenacil at three concentrations (25 g ai/ha (one-fold field concentration, 1×), 100 g ai/ha (four-fold field concentration, 4×), and 0 g ai/ha (water, 0×)), oxyfluorfen at three concentrations (180 g ai/ha (one-fold field concentration, 1×), 720 g ai/ha (four-fold field concentration, 4×), and 0 g ai/ha (water, 0×)), and flumioxazin at three concentrations (60 g ai/ha (one-fold field concentration, 1×), 240 g ai/ha (four-fold field concentration, 4×), and 0 g ai/ha (water, 0×) to determine the tolerance of Arabidopsis thaliana to the herbicides. After 7 days of spraying (7 DAT), the damage level of each plant caused by the herbicide was evaluated according to the average of the damage levels (%) of plants (the average of the damage levels (%) of plants=the injured leaf area/the total leaf area×100%), i.e., the grade of pesticide damage: grade 0 means that the growth status of plants is essentially consistent with those sprayed with the blank solvent (water); grade 1 means that the average of the damage levels of plants is less than 10%; grade 2 means that the average of the damage levels of plants is greater than 10%; and grade 3 means that the average of the damage levels of plants is 100%. The plants having a growth status falling within grades 0 and 1 are classified as highly resistant plants; those having a growth status falling within grade 2 are classified as poorly resistant plants; and those having a growth status falling within grade 3 are classified as non-resistant plants.

[1] = genotype Control vector, 180 g ai/ha
[2] = genotype Control vector, 720 g ai/ha
[3] = genotype PPO-AP-01, 180 g ai/ha
[4] = genotype PPO-AP-01, 720 g ai/ha

CCOc1cc(Oc2ccc(C(F)(F)F)cc2Cl)ccc1[N+](=O)[O-] [oxyfluorfen, 2-chloro-1-(3-ethoxy-4-nitrophenoxy)-4-trifluoromethylbenzene]
22 plant: The grade of pesticide damage/plant: 0 (genotype PPOE-01, 180 g ai/ha)
high-resistant tolerance: tolerance to the herbicide (in words) (genotypes PPOA-01 to PPOF-01, at different concentrations, compared with the control vector and CK)
15 plant: The grade of pesticide damage/plant: 0 (genotype PPOE-01, 720 g ai/ha)
0 plant: The grade of pesticide damage/plant: 0 (genotype CK, 180 g ai/ha) | The grade of pesticide damage/plant: 1 (genotype CK, 180 g ai/ha) | The grade of pesticide damage/plant: 2 (genotype CK, 180 g ai/ha) | The grade of pesticide damage/plant: 0 (genotype CK, 720 g ai/ha) | The grade of pesticide damage/plant: 1 (genotype CK, 720 g ai/ha) | The grade of pesticide damage/plant: 2 (genotype CK, 720 g ai/ha) | The grade of pesticide damage/plant: 0 [1] | The grade of pesticide damage/plant: 1 [1] | The grade of pesticide damage/plant: 2 [1] | The grade of pesticide damage/plant: 0 [2] | The grade of pesticide damage/plant: 1 [2] | The grade of pesticide damage/plant: 2 [2] | The grade of pesticide damage/plant: 0 [3] | The grade of pesticide damage/plant: 1 [3] | The grade of pesticide damage/plant: 2 [3] | The grade of pesticide damage/plant: 0 [4] | The grade of pesticide damage/plant: 1 [4] | The grade of pesticide damage/plant: 2 [4] | The grade of pesticide damage/plant: 1 (genotype PPOA-01, 180 g ai/ha) | The grade of pesticide damage/plant: 2 (genotype PPOA-01, 180 g ai/ha) | The grade of pesticide damage/plant: 3 (genotype PPOA-01, 180 g ai/ha) | The grade of pesticide damage/plant: 1 (genotype PPOA-01, 720 g ai/ha) | The grade of pesticide damage/plant: 2 (genotype PPOA-01, 720 g ai/ha) | The grade of pesticide damage/plant: 3 (genotype PPOA-01, 720 g ai/ha) | The grade of pesticide damage/plant: 1 (genotype PPOB-01, 180 g ai/ha) | The grade of pesticide damage/plant: 2 (genotype PPOB-01, 180 g ai/ha) | The grade of pesticide damage/plant: 3 (genotype PPOB-01, 180 g ai/ha) | The grade of pesticide damage/plant: 1 (genotype PPOB-01, 720 g ai/ha) | The grade of pesticide damage/plant: 2 (genotype PPOB-01, 720 g ai/ha) | The grade of pesticide damage/plant: 3 (genotype PPOB-01, 720 g ai/ha) | The grade of pesticide damage/plant: 1 (genotype PPOC-01, 180 g ai/ha) | The grade of pesticide damage/plant: 2 (genotype PPOC-01, 180 g ai/ha) | The grade of pesticide damage/plant: 3 (genotype PPOC-01, 180 g ai/ha) | The grade of pesticide damage/plant: 1 (genotype PPOC-01, 720 g ai/ha) | The grade of pesticide damage/plant: 2 (genotype PPOC-01, 720 g ai/ha) | The grade of pesticide damage/plant: 3 (genotype PPOC-01, 720 g ai/ha) | The grade of pesticide damage/plant: 1 (genotype PPOD-01, 180 g ai/ha) | The grade of pesticide damage/plant: 2 (genotype PPOD-01, 180 g ai/ha) | The grade of pesticide damage/plant: 3 (genotype PPOD-01, 180 g ai/ha) | The grade of pesticide damage/plant: 1 (genotype PPOD-01, 720 g ai/ha) | The grade of pesticide damage/plant: 2 (genotype PPOD-01, 720 g ai/ha) | The grade of pesticide damage/plant: 3 (genotype PPOD-01, 720 g ai/ha) | The grade of pesticide damage/plant: 2 (genotype PPOE-01, 180 g ai/ha) | The grade of pesticide damage/plant: 3 (genotype PPOE-01, 180 g ai/ha) | The grade of pesticide damage/plant: 2 (genotype PPOE-01, 720 g ai/ha) | The grade of pesticide damage/plant: 3 (genotype PPOE-01, 720 g ai/ha) | The grade of pesticide damage/plant: 1 (genotype PPOF-01, 180 g ai/ha) | The grade of pesticide damage/plant: 2 (genotype PPOF-01, 180 g ai/ha) | The grade of pesticide damage/plant: 3 (genotype PPOF-01, 180 g ai/ha) | The grade of pesticide damage/plant: 1 (genotype PPOF-01, 720 g ai/ha) | The grade of pesticide damage/plant: 2 (genotype PPOF-01, 720 g ai/ha) | The grade of pesticide damage/plant: 3 (genotype PPOF-01, 720 g ai/ha)
180 g ai/ha: effective dose distinguishing sensitive plants from plants having an average level of resistance (Arabidopsis thaliana)
2 plant: The grade of pesticide damage/plant: 1 (genotype PPOE-01, 180 g ai/ha)
9 plant: The grade of pesticide damage/plant: 1 (genotype PPOE-01, 720 g ai/ha)
no tolerance: tolerance to the herbicide (in words) (genotype PPO-AP-01, at different concentrations)
24 plant: The grade of pesticide damage/plant: 3 (genotype CK, 180 g ai/ha) | The grade of pesticide damage/plant: 3 (genotype CK, 720 g ai/ha) | The grade of pesticide damage/plant: 3 [1] | The grade of pesticide damage/plant: 3 [2] | The grade of pesticide damage/plant: 3 [3] | The grade of pesticide damage/plant: 3 [4] | The grade of pesticide damage/plant: 0 (genotype PPOA-01, 180 g ai/ha) | The grade of pesticide damage/plant: 0 (genotype PPOA-01, 720 g ai/ha) | The grade of pesticide damage/plant: 0 (genotype PPOB-01, 180 g ai/ha) | The grade of pesticide damage/plant: 0 (genotype PPOB-01, 720 g ai/ha) | The grade of pesticide damage/plant: 0 (genotype PPOC-01, 180 g ai/ha) | The grade of pesticide damage/plant: 0 (genotype PPOC-01, 720 g ai/ha) | The grade of pesticide damage/plant: 0 (genotype PPOD-01, 180 g ai/ha) | The grade of pesticide damage/plant: 0 (genotype PPOD-01, 720 g ai/ha) | The grade of pesticide damage/plant: 0 (genotype PPOF-01, 180 g ai/ha) | The grade of pesticide damage/plant: 0 (genotype PPOF-01, 720 g ai/ha)
